From patent US5610174A, “Use of α1A -selective adrenoceptor agonists for the treatment of urinary incontinence” (priority 1995, dated 1997)
Read-outs that look alike come from different tables or passages of the source.

Columns and labels:
human α2B adrenoceptor = target: T1, human α2B adrenoceptor (Homo sapiens, UniProt P18089); experiment: Inhibition of forskolin stimulated adenylyl cyclase, α2B; assay type: cell-based; design: expressed in transfected cells; host or cells: Y1 cells, line Ya2B-2 (ATCC CRL 11888); conditions: for Emax: read-out: intrinsic activity (i.a.) α2B
T1 sequence (P18089 1-450): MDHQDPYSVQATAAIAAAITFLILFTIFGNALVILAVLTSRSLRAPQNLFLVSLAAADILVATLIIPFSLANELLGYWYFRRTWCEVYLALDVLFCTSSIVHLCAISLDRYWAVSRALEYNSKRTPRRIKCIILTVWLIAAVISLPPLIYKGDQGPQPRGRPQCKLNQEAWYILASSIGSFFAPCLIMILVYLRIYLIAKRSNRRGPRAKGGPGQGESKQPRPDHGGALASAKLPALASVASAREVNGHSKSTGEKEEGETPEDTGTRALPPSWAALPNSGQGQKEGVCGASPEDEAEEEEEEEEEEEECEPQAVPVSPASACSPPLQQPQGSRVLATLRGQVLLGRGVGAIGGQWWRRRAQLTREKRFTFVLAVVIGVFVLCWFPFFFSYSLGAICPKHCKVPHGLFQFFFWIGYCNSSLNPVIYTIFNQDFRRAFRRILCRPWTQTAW
Procedure: (§1) α2 -Adrenoceptor-Mediated Inhibition of Forskolin Stimulated Adenylyl Cyclase
(§2) The agonist activity of test compounds was assayed by measuring their ability to inhibit adenylyl cyclase in cells stably transfected with each of the three cloned human α2 -adrenoceptors. LM(tk-) cells expressing the α2A - or the α2C -, as well as Y1 cells expressing the α2B -adrenoceptor were used. […] The formation of cyclic AMP was measured in cultures incubated with DMEM containing 1 mM theophylline. Twelve concentrations of the test compounds (from 10 pM to 100 μM) were added to the incubation medium and incubated at 37° C. for 20 min. Following this incubation step, 10 μM forskolin was added to stimulate the formation of cyclic AMP, and the cultures were incubated for another 10 min. The reaction was stopped by replacing the incubation medium with 100 mM HCl . The intracellular levels of cyclic AMP were measured by radioimmunoassay. The data from concentration-response curves was fitted to a four-parameter logistic equation, by non-linear regression analysis, to determine the pEC50 and intrinsic activity.

human α2C adrenoceptor [1] = target: T2, human α2C adrenoceptor (Homo sapiens, UniProt P18825); experiment: Inhibition of forskolin stimulated adenylyl cyclase, α2C; assay type: cell-based; conditions: for Emax: read-out: intrinsic activity (i.a.) α2C
T2 construct: expressed in transfected cells; host or cells: LM(tk-)
T2 sequence (P18825 1-462): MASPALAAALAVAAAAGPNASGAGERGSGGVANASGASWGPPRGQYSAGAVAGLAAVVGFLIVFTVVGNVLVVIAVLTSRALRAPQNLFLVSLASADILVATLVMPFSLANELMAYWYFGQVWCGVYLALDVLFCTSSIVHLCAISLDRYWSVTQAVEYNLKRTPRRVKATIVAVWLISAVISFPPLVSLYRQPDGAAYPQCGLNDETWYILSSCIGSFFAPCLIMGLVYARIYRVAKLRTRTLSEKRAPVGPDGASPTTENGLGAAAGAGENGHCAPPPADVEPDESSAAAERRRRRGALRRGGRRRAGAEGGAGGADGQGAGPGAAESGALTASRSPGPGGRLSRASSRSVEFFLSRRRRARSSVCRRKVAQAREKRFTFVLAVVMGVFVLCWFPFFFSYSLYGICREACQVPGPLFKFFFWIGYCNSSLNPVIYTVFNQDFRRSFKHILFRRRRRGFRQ
Procedure: as §1, §2

human α2C adrenoceptor [2] = target: T2, human α2C adrenoceptor; experiment: Radioligand binding ([3H]rauwolscine) at cloned human α2C
Procedure: To determine the affinity of compounds at the α2 receptors, LM(tk-) cell lines stably transfected with the genes encoding the α2A, α2B, and α2C receptors were used. Cell lysates were prepared as described above (see Radioligand Binding Assays), and suspended in 25 mM glycylglycine buffer (pH 7.6 at room temperature). Equilibrium competition binding assays were performed using [^3 H] rauwolscine (0.5 nM), and nonspecific binding was determined by incubation with 10 μM phentolamine. The bound radioligand was separated by filtration through GF/B filters using a cell harvester.

human 5-HT7 receptor = target: T3, human 5-HT7 receptor (Homo sapiens, UniProt P34969); experiment: Radioligand binding at human 5-HT7
T3 construct: expressed in transfected cells; host or cells: LM(tk-) clonal cell line, designated L-5-HT-4B, ATCC CRL 11166 (cell lysates)
Procedure: Human Serotonin Receptors
5-HT1Dα, 5-HT1Dβ, 5-HT1E, 5-HT1F, and 5-HT7 Receptors: The cell lysates of LM(tk-) clonal cell line stably transfected with the genes encoding each of these 5-HT receptor-subtypes were prepared as described above. The cell line for the 5-HT1Dαreceptor, designated as Ltk-8-30-84, was deposited on Apr. […] The cell for the 5-HT1Dβ receptor, designated as Ltk-11, was deposited on Apr. […] The cell line for the 5-HT1E receptor, designated 5-HT1E -7, was deposited on Nov. […] The cell line for the 5-HT1F receptor, designated L-5-HT1F, was deposited on Dec. […] The cell line for the 5-HT7 receptor, designated as L-5-HT-4B, was deposited on Oct. […] These preparations were suspended in 50 mM Tris-HCl buffer (pH 7.4 at 37° C.) containing 10 mM MgCl2, 0.2 mM EDTA, 10 μM pargyline, and 0.1% ascorbate. […] Nonspecific binding was determined in the presence of 10 μM serotonin. The bound radioligand was separated by filtration through GF/B filters using a cell harvester.

[3] = relative to reference full agonist (e.g., norepinephrine = unity)
[4] = Table 3, agonists, read-out: pKi α2C (converted)
[5] = agonist, inhibition of forskolin stimulated adenylyl cyclase, read-out: pEC50 α2B (converted)
[6] = agonist, inhibition of forskolin stimulated adenylyl cyclase, read-out: pEC50 α2C (converted)

T3 sequence (P34969 1-445 isoform P34969-2): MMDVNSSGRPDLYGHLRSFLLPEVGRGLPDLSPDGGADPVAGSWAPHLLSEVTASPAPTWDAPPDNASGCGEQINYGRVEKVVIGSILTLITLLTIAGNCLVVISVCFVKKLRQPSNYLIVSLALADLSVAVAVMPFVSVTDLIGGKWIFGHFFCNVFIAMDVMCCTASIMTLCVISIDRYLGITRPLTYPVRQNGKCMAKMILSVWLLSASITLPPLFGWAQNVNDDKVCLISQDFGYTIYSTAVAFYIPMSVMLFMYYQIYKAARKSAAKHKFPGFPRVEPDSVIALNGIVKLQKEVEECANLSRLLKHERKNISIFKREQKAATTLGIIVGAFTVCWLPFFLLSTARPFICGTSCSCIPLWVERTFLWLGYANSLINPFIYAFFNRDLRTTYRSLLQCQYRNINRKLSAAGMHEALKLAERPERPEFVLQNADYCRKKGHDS

| SMILES | Emax (human α2B adrenoceptor) [%] | Emax (human α2C adrenoceptor [1]) [%] | Ki (human α2C adrenoceptor [2]) [µM] | EC50 (human α2B adrenoceptor) [µM] | EC50 (human α2C adrenoceptor [1]) [µM] | also measured |
| --- | --- | --- | --- | --- | --- | --- |
| CNC[C@H](O)c1cccc(O)c1 [(-)-phenylephrine] |  |  |  |  |  | intrinsic activity (i.a.) α2B (human α2B adrenoceptor; [3]): 0.8; intrinsic activity (i.a.) α2C (human α2C adrenoceptor [1]; [3]): 0.9 |
| COc1ccc(SC)c2c1C[C@@H]1[C@@H](C2)OCCN1C (relative stereo) [SDZ NVI-085, (±)-trans-4-Methyl-6-methoxy-9-thiomethoxy-3,4,4a, 5,10,10a-hexahydro-2H-naphtho[2,3-b][1,4]oxazine] | 0 | 0 |  |  |  | Ki (human α2C adrenoceptor [2]; [4]): 0.794 µM; EC50 (human α2B adrenoceptor; [5]): > 100 µM; Ki (human 5-HT7 receptor): 0.1 µM; EC50 (human α2C adrenoceptor [1]; [6]): > 100 µM |
| COc1ccc(OC)c(C(O)CN)c1 (racemic) [ST-1059, (±)-2-Amino-1-(2, 5 dimethoxyphenyl) ethanol] | 60 | 50 | 3.98 | 0.00251 | 0.501 |  |
| CNCCc1ccc(O)c(NS(C)(=O)=O)c1 [SK&F 102652] | 90 | 80 |  |  |  | pKi 5-HT7 (human 5-HT7 receptor; [3H]serotonin): 5.3 |
| CN[C@@H](C)[C@H](O)c1ccccc1 [(-)-ephedrine] | 40 | 0 | 7.94 | 0.251 | 10 |  |
| CS(=O)(=O)Nc1c(O)ccc2c1CCCC2C1=NCCN1 (racemic) [Compound A-61603, (±)-N-[5-(4,5-Dihydro-1H-imidazol-2-yl)-2-hydroxy-5,6,7,8-tetra-hydronaphthalen-1-yl]methanesulfonamide] |  |  |  |  |  | Ki (human α2C adrenoceptor [2]; [4]): 0.631 µM; EC50 (human α2B adrenoceptor; [5]): 0.0794 µM; Emax (human α2B adrenoceptor; [3]): 80%; Ki (human 5-HT7 receptor; [3H]serotonin, read-out: pKi 5-HT7 (converted)): 5.01 µM; EC50 (human α2C adrenoceptor [1]; [6]): 0.02 µM; Emax (human α2C adrenoceptor [1]; [3]): 90% |
| C[C@H](N)[C@H](O)c1ccccc1 [(-)-norephedrine] | 50 | 60 | 3.16 | 0.794 | 0.126 |  |
